Several values for one entry are separate records, joined by “and”; a condition that tells them apart may be missing. Equal entries are not always repeated.
How the values were obtained:
[1] = target: T1, Splicing factor 3B subunit 3 (Homo sapiens, UniProt Q15393); experiment: WiDr; details: pH 7.8; 4 °C
T1 sequence (Q15393 whole entry): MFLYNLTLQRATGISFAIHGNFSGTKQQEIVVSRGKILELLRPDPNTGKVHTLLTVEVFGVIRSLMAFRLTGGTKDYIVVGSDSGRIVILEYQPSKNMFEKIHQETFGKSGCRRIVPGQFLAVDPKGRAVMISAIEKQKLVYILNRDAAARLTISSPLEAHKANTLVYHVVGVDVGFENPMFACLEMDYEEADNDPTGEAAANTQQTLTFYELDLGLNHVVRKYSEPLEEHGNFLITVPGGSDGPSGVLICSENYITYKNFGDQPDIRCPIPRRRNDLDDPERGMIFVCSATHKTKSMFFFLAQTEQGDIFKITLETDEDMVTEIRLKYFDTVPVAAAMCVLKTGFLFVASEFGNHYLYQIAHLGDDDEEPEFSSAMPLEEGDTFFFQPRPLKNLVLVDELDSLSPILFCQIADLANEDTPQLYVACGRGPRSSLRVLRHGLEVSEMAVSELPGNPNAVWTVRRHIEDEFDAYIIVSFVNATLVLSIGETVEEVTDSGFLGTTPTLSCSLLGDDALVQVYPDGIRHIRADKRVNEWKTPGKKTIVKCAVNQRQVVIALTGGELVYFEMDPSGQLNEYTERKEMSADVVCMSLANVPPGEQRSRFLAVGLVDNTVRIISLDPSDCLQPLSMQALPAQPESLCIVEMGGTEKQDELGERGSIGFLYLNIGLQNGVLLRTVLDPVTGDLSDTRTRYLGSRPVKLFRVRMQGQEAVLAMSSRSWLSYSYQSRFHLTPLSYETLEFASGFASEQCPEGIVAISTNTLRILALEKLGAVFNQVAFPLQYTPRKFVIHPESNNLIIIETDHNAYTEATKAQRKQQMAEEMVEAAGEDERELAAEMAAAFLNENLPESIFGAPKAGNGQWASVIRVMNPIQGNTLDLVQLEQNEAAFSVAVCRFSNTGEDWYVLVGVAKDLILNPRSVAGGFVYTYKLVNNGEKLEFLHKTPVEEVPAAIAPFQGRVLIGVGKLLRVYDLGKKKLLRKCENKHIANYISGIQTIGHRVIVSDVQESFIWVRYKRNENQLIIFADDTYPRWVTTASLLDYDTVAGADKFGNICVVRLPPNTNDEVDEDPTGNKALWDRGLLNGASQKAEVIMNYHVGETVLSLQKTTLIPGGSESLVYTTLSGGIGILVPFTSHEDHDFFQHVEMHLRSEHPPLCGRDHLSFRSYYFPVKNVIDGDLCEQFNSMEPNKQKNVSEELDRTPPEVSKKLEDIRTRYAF
Excerpt: Cell proliferation assay using WiDr

[2] = target: Splicing factor 3B subunit 1 / PHD finger-like domain-containing protein 5A (Homo sapiens, UniProt O75533+Q7RTV0); experiment: VEGF-PLAP; details: pH 7.8; 4 °C
Excerpt: Placental alkaline phosphatase (PLAP) reporter assay controlled by VEGF promoter (VEGF-PLAP)

Chain of Splicing factor 3B subunit 1 / PHD finger-like domain-containing protein 5A (O75533 whole entry, the tested form may be a part): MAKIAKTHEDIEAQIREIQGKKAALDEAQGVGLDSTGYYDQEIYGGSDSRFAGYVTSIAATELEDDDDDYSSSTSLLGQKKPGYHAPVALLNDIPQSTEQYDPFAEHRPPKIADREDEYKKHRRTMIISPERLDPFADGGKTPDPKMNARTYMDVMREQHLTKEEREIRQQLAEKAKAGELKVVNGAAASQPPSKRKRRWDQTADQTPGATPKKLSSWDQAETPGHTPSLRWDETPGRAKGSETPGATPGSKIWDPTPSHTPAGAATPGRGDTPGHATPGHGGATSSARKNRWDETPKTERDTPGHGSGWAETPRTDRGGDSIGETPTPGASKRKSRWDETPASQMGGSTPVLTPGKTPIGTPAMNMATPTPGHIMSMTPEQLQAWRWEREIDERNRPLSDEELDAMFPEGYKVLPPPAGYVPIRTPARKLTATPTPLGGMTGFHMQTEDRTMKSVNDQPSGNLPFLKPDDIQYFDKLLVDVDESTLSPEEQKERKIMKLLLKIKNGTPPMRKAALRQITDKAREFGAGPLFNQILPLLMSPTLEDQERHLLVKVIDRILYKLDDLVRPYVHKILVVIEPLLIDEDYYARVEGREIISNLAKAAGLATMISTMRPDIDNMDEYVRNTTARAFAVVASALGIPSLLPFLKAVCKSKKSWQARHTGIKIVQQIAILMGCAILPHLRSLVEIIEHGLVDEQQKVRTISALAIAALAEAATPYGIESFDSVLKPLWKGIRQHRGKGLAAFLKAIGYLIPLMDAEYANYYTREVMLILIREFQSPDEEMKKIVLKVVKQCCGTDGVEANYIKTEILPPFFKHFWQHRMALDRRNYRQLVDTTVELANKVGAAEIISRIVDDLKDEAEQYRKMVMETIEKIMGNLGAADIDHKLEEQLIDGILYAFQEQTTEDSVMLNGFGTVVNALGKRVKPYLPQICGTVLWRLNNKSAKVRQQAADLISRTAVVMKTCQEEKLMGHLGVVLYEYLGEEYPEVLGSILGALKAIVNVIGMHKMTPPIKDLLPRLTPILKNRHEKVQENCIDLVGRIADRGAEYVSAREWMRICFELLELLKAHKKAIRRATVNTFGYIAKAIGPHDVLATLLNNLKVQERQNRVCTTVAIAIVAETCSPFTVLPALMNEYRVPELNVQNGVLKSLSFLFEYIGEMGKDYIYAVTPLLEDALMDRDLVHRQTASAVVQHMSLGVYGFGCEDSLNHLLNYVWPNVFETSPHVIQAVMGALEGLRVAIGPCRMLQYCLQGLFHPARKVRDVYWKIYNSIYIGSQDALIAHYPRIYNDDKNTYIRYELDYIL
Chain of Splicing factor 3B subunit 1 / PHD finger-like domain-containing protein 5A (Q7RTV0 2-110 limits assumed): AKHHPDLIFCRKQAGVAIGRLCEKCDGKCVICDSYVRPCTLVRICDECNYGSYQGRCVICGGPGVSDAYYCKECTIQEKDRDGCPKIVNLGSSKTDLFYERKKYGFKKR

Structure (SMILES) | EC50 [1] [nM] | EC50 [2]
CC[C@H](O)[C@@H](C)[C@H]1O[C@@H]1C[C@@](C)(O)/C=C/C=C(\C)[C@H]1OC(=O)C[C@H](O)CC[C@@](C)(O)[C@@H](OC(C)=O)/C=C/[C@@H]1C [(3R,6R,7S,8E,10S,11S,12E,14E,16R,18R,19R,20R,21S)-7-acetoxy-3,6,16,21-tetrahydroxy-6,10,12,16,20-pentamethyl-18,19-epoxytricosa-8,12,14-triene-11-olide] | 6 | 4.3 nM
CC[C@H](O)[C@@H](C)[C@H]1O[C@@H]1C[C@H](C)/C=C/C=C(\C)[C@H]1OC(=O)C[C@H](O)CC[C@@](C)(O)[C@@H](OC(=O)NCCCC[C@H](NC(=O)c2ccc(C3(C(F)(F)F)N=N3)cc2)C(=O)N(C)CCN(C)C(=O)CCCC[C@H]2SC[C@H]3NC(=O)N[C@H]32)/C=C/[C@@H]1C [CID1620213] | 595 | –
CCNC(=O)O[C@H]1/C=C/[C@H](C)[C@@H](/C(C)=C/C=C/[C@@H](C)C[C@H]2O[C@@H]2[C@H](C)[C@@H](O)CC)OC(=O)C[C@H](O)CC[C@@]1(C)O [CID16202133] | 6.1 | 4.9 nM
CC[C@H](O)[C@@H](C)[C@H]1O[C@@H]1C[C@H](C)/C=C/C=C(\C)[C@H]1OC(=O)C[C@H](O)CC[C@@](C)(O)[C@@H](OC(=O)NCCOCCOCCNC(=O)CCCCC2=[N+]3C(=Cc4c(C)cc(C)n4[B-]3(F)F)C=C2)/C=C/[C@@H]1C [CID16202134] | 70.2 | 78.4 nM and 645 nM

Reference: BindingDB's records for doi:10.1038/nchembio.2007.16 (Eisai Co., Ltd, 2007)
